In ChEMBL document CHEMBL6177993, “De Novo 3-(Phenylcarbamoyl) Benzoate Analogues: Efficacy against Multidrug-Resistant S. aureus and Elucidation of the Biodistribution Profile” (J Med Chem, 2025):
≈ marks a conversion by molar mass, not a printed value. Calls of active or inactive are those of the source. No cut-off for these calls is given here.

Assays:
Staphylococcus aureus [1] = assay: Antibacterial activity against Staphylococcus aureus ATCC 29213 infected in female BALB/c mouse skin infection model assessed as reduction of abscess in subcutaneous tissue at 10 times MIC pre-infected with bacteria followed by compound addition and measured after 24 hrs; format: functional, organism-based
Staphylococcus aureus [2] = assay: Antibacterial activity against Staphylococcus aureus ATCC 29213 infected in female BALB/c mouse skin infection model assessed as reduction in number of bacterial cells in skin at 10 times MIC pre-infected with bacteria followed by compound addition and measured after 24 hrs; format: functional, organism-based
[3] = Drug distribution in female BALB/c mouse lung measured after 24 hrs; format: ADME, tissue-based; settings: in vivo
Cell membrane [4] = assay: Induction of cytoplasmic membrane depolarization in Staphylococcus aureus ATCC 29213 assessed as fold increase in fluorescence intensity at 10 times MIC measured after 30 min by DiSC3-5 dye based fluorescence method; format: subcellular
Staphylococcus aureus [5] = assay: Antibacterial activity against Staphylococcus aureus ATCC 29213 infected in female BALB/c mouse skin infection model assessed as reduction in bacterial load at 10 times MIC pre-infected with bacteria followed by compound addition and measured after 24 hrs relative to control; format: functional; design: scale not given: the % may be the effect or the level left
Cell membrane [6] = assay: Disruption of cell membrane in Staphylococcus aureus ATCC 29213 assessed as increase in PI uptake at 10 times MIC measured after 8 mins by fluorescence based microplate reader analysis
Staphylococcus aureus [7] = assay: Antibacterial activity against Staphylococcus aureus ATCC 29213 infected in female BALB/c mouse skin infection model assessed as reduction in skin lesions at 10 times MIC pre-infected with bacteria followed by compound addition and measured after 24 hrs; format: functional, organism-based
Staphylococcus aureus [8] = assay: Antibacterial activity against Staphylococcus aureus ATCC 29213 assessed as reduction in bacterial growth measured after 18 to 24 hrs by broth microdilution method; format: functional; settings: time 18-24 hrs
Staphylococcus aureus [9] = assay: Antibacterial activity against methicillin-resistant Staphylococcus aureus NRS 186 assessed as reduction in bacterial growth measured after 18 to 24 hrs by broth microdilution method; format: functional; settings: time 18-24 hrs
Klebsiella pneumoniae = assay: Antibacterial activity against Klebsiella pneumoniae BAA 1705 assessed as reduction in bacterial growth measured after 18 to 24 hrs by broth microdilution method; format: functional; settings: time 18-24 hrs
Staphylococcus aureus [10] = assay: Antibacterial activity against methicillin-resistant Staphylococcus aureus NRS 191 assessed as reduction in bacterial growth measured after 18 to 24 hrs by broth microdilution method; format: functional; settings: time 18-24 hrs

O=C(O)c1cccc(C(=O)Nc2c(C(c3ccc(F)cc3)c3ccc(F)cc3)cc(Cl)cc2C(c2ccc(F)cc2)c2ccc(F)cc2)c1
Activity (Staphylococcus aureus [1]): Active | Activity (Staphylococcus aureus [2]): Active | Drug uptake [3]: 9.91 nmol/mg | fold change (FC) (Cell membrane [4]): 4 | Activity (Staphylococcus aureus [5]): ~83% | Activity (Cell membrane [6]): Active | Activity (Staphylococcus aureus [7]): Active | MIC (Staphylococcus aureus [8]): 1 mg/L (≈ 1.47 µM) | MIC (Staphylococcus aureus [9]): 2 mg/L (≈ 2.94 µM) | MIC (Klebsiella pneumoniae): > 64 mg/L | MIC (Staphylococcus aureus [10]): 2 mg/L (≈ 2.94 µM)
